Structures can show the parent of a compound that is named as a salt. Where two headings read alike, the source gives them in different places.
Tests used:
[1] = test system: isolated cardiac muscle cells; assay: Suppression activity of veratrine-induced contracture of isolated cardiac muscle; type: cell-based; settings: Cardiac muscle cell, 5 min; rat isolated cardiac muscle cells, veratrine 100 gg/mL, 5 minutes after addition, probit analysis; read-out: IC50 (concentration of the test compound when half of the cells were contracted)
Description: [Suppression Activity of Veratrine-Induced Contracture of Isolated Cardiac Muscle]
Rats were anesthetized with 40 mg/kg (i.p.) of pentobarbital sodium and held in supine postion, and heparin was injected through the jugular vein. […] A polyethylene tube filled with Krebs-Ringer-HEPES (KRH) solution (pH 7.4) containing 1 mM CaCl2 was inserted through the aorta in retrograde manner, and the tube was fixed. The heart was extracted simultaneously with perfusion of the KRH solution at a hydraulic pressure of 70 cm water column. After thoroughly flushing the remaining blood by spontaneous contraction of the heart, stroke of the heart was halted by perfusion of the Ca^2+ free KRH solution for 10 minutes. The perfusion solutions described above were used after oxygenation with a mixed gas containing 95% O2 and 5% CO2 and keeping at a temperature of 37° C. Then, a KRH solution containing 25 μM CaCl2, 0.06% collagenase and 0.1% albumin was perfused for 20 minutes at 37° C. until the heart was soften. The ventricles were cut into pieces in the collagenase solution at 37° C., followed by an enzyme treatment for 10 minutes while aerating the solution with the mixed gas of 95% O2/5% CO2. The cells were dispersed by pipetting, and connective tissues were removed from the dispersed cells by filtering with a stainless steel mesh. After halting the enzyme reaction by adding albumin in the filtrate, the supernatant was discarded by centrifugation. The cells were suspended in the KRH solution containing 25 μM CaCl2 and 1% albumin, and the Ca^2+ concentration was increased stepwise by sequentially adding the CaCl2 solution in the suspension to a final concentration of 0.5 mM. A pellet of the cells was obtained by centrifugation after allowing the suspension to stand for 10 minutes. The pellet of the cells was laid on a column (10 cm in height and 15 mm in diameter) filled with the KRH solution containing 1 mM CaCl2 and 2% albumin, and the column was allowed to stand for 5 to 10 minutes. The supernatant was gently removed, and the number of rod-shaped cells in the precipitated cells was counted. The cells were re-suspended in the KRH solution containing 1 mM CaCl2 and 0.1% albumin, and pipetted into each well of a 48 well multi-plate (3548, COSTER) coated with poly-L-lysine so that each well contains 0.5 mL of the cell suspension with 1×10^4 cells/well. The suspension in each well was aerated with a mixed gas of 95% O2/5% CO2 at 37° C. for 1 hour to allow the cells to adhere on the bottom of the well. […] Then, the medium was replaced with a KRH solution containing a test compound, 0.025% lactic acid and 1 mM CaCl2, followed by aerating with a mixed gas containing 95% O2/5% CO2 at 37° C. for 30 minutes. After taking a photograph under a microscope, a KRH solution containing veratrine, 0.025% lactic acid and 1 mM CaCl2 was added to each well so that the final concentration of veratrin becomes 100 gg/mL, followed by taking a photograph of morphological changes of the cells after 5 minutes passed from the addition. A change from the rod-shape cell to a spherical cell was defined as contraction by veratrine. Veratrine in this concentration can contract all the cells. The concentration of the test compound when half of the cells were contracted was defined as IC50 (μmol/L) that can be calculated by a probit analysis.

[2] = test system: Ischemia-Reperfusion Induced Arrythmia Model in Rats; assay: Suppression effect on ischemia-reperfusion induced arrythmia in rats; type: in vivo, rat
Description: [Suppression Effect on Ischemia-Reperfusion Induced Arrythmia in Rats]
The test compounds were administered to rats starved from a day before by gavage at a dosage of 10 mL/kg under an awaken condition. The rats were anesthetized with 60 mg/kg (i.p.) of sodium pentobarbital after 35 minutes passed from the administration, and were fixed on a warmed sheet in supine position. The body temperature was kept at 37° C. during the experiment, and artificial respiration was started under a condition of 15 mL/Kg and 55 strokes/minutes. […] Then, the left chest was open, and the left major coronary artery at an atrium side was sewed using a needle with a thread in order to ligate the coronary artery. After stabilizing for about 10 minutes (after 60 minutes passed from the administration), the coronary artery was ligated for 5 minutes, and re-perfused for 10 minutes thereafter. The ligation of the coronary artery was conducted by inserting a suture through a snare made of a polyethylene tube and pulling the both ends of the suture, followed by pressing the snare onto the heart. The re-perfusion was conducted by removing the snare. The aortic blood pressure was measured with a pressure transducer. An electrocardiogram was led by a standard lead II. […] After the completion of the experiments, generation of ventricular fibrillation was confirmed for each individual using an analysis software running on the personal computer, and incidence (%) of the ventricular fibrillation was determined for each administration group.

[3] = test system: female Crj(SD)IGS rats
[4] = test system: Electrocardiogram in Rats; assay: Effect on electrocardiogram in rats; type: in vivo; settings: 5 mg/kg intravenous, anesthetized rat, two minutes after administration
Description: [Effect on Electrocardiogram in Rats]
After anesthetizing with 1.5 g/kg (s.c.) of urethane, a rat was fixed on a warm plate at its supination. Polyethylene tubes for administering a test compound and for measuring the blood pressure were inserted into and fixed to the jugular vein and femoral artery, respectively. The blood pressure of the artery was measured using a pressure transducer. An electrode was attached to the animal, electrocardiograms were led by the standard lead II. The heart rate was measured by using a heart rate counter. The test compound was given by intravenous injection when the blood pressure and heat rate had been stabilized after the operation. […] Each parameter on the electrocardiogram was processed using an analysis software running on the personal computer to calculate the rate of change as compared with that before administration.

[5] = Table 2-2, 5 mg/kg by gavage, solvent group 57.1
[6] = oral gavage once a day for 14 days, 6-week aged female rats

SMILES | IC50 [1] [nM] | Incidence (%) of the ventricular fibrillation [2, 5] [%] | PQ Distance (rate of change) [4] | QRS Width (rate of change) [4] | other results
CCCCOc1ccc(N(C)CCC2(O)CCN(CCc3ccc(F)cc3F)CC2)cc1 [Example 183, 4-[2-[N-(4-n-butoxyphenyl)-N-methylamino]ethyl]-1-[2-(2,4-difluorophenyl)ethyl]piperidin-4-ol dihydrochloride] | 1000 |  |  |  | 
CCCCOc1ccc(N(C)CC2(O)CCN(Cc3ccccc3)CC2)cc1 [Example 210, 1-benzyl-4-[N-(4-n-butoxyphenyl)-N-methylamino]-methylpiperidin-4-ol monomaleate] | 900 |  |  |  | 
CC(C)Oc1ccc(N(C)CCC2(O)CCN(C(c3ccccc3)c3ccccc3)CC2)cc1 [Example 278, 1-diphenylmethyl-4-[2-[N-methyl-N-(4-isopropoxyphenyl)-amino]ethyl]piperidin-4-ol dihydrochloride] | 300 | 0.0 | — (The rate of change at two minutes after administration is 15% or less as compared with that before administration.) | — (The rate of change at two minutes after administration is 15% or less as compared with that before administration.) | daily dosage at which no fatal cases were observed [3, 6]: ≤ 20 mg/kg
CC(C)Oc1ccc(N(C)CCC2(O)CCN(Cc3ccc(Br)cc3)CC2)cc1 [Example 220, 1-(4-bromophenylmethyl)-4-[2-[N-methyl-N-(4-isopropoxyphenyl)amino]ethyl]piperidin-4-ol dihydrochloride] | 700 |  |  |  | 
CCCCOc1ccc(N(C)CCC2(O)CCN(Cc3ccccc3)CC2)cc1 [Example 146, 1-benzyl-4-[2-[N-(4-n-butoxyphenyl)-N-methylamino]ethyl]piperidin-4-ol dihydrochloride] | 1200 |  | — (The rate of change at two minutes after administration is 15% or less as compared with that before administration.) | — (The rate of change at two minutes after administration is 15% or less as compared with that before administration.) | Incidence (%) of the ventricular fibrillation ([2]; Table 2-1, 5 mg/kg by gavage, ligation 60 min after administration, solvent group 63.6): 30.0%; Incidence (%) of the ventricular fibrillation ([2]; Table 2-1, 10 mg/kg by gavage, solvent group 63.6): 11.1%; Incidence (%) of the ventricular fibrillation ([2]; Table 2-1, 20 mg/kg by gavage, solvent group 63.6): 0.0%; daily dosage at which no fatal cases were observed [3, 6]: ≤ 100 mg/kg
CC(C)Oc1ccc(N(C)CCC2(O)CCN(Cc3ccc(C(F)(F)F)cc3)CC2)cc1 [Example 221, 4-[2-[N-methyl-N-(4-isopropoxyphenyl)amino]ethyl]-1-[4-(trifluoromethyl)phenylmethyl]piperidin-4-ol dihydrochloride] | 300 |  |  |  | 
COC(=O)c1ccc(CN2CCC(O)(CCN(C)c3ccc(OC(C)C)cc3)CC2)cc1 [Example 233, 1-[4-(methoxycarbonyl)phenylmethyl]-4-[2-[N-methyl-N-(4-isopropoxyphenyl)amino]ethylipiperidin-4-oldihydrochloride] |  | 28.6 | — (The rate of change at two minutes after administration is 15% or less as compared with that before administration.) | — (The rate of change at two minutes after administration is 15% or less as compared with that before administration.) | daily dosage at which no fatal cases were observed ([3]; female, Crj(SD)IGS, rat, in vivo, po, 14 days): ≤ 50 mg/kg
CCCCOc1ccc(N(C)CCC2(O)CCN(CCc3ccc(F)cc3)CC2)cc1 [Example 176, 4-[2-[N-(4-n-butoxyphenyl)-N-methylamino]ethyl]-1-[2-(4-fluorophenyl)ethyl]piperidin-4-ol dihydrochloride] | 900 |  | — (The rate of change at two minutes after administration is 15% or less as compared with that before administration.) | — (The rate of change at two minutes after administration is 15% or less as compared with that before administration.) | 
CC(C)Oc1ccc(N(C)CCC2(O)CCN(Cc3ccc(Br)cc3F)CC2)cc1 [Example 240, 1-(4-bromo-2-fluorophenylmethyl)-4-[2-[N-methyl-N-(4-isopropoxyphenyl)amino]ethyl]piperidin-4-ol dihydrochloride] | 700 | 0.0 | — (The rate of change at two minutes after administration is 15% or less as compared with that before administration.) | — (The rate of change at two minutes after administration is 15% or less as compared with that before administration.) | 
CC(C)Oc1ccc(N(C)CCC2(O)CCN(Cc3ccc(OC(F)(F)F)cc3)CC2)cc1 [Example 236, 4-[2-[N-methyl-N-(4-isopropoxyphenyl)amino]ethyl]-1-(4-trifluoromethoxyphenylmethyl)piperidin-4-ol dihydrochloride] | 300 |  |  |  | 
